We go through four molecules from patent US20130131029A1, “ANTISOLVENT SOLIDIFICATION PROCESS” (MSD Oss B.V., priority 2005, published 2013).

The nature of data set [1]: Crystal size distribution (CSD) by laser diffraction (Mastersizer 2000, Fraunhofer model). Format: physicochemical. An excerpt: The solid, preferably crystalline, particles obtainable by a process as described above advantageously have a high purity and, furthermore, a narrow particle size range, such as were not obtainable by prior art processes. The span, defined as (d90-d10)/d50, wherein d50, d10, and d90 can be understood to mean that 50%, 10%, and 90%, respectively, of the particles having a particle size smaller than or equal to the indicated value as determined by conventional laser diffraction technique, can even be below 1.4, which is exceptional for a solidification process such as a crystallisation process. In general, for the process according to the present invention the span preferably is below 3. More preferably, the span is below 2.5, and most preferably below 2.
The following procedure was applied for the production of sodium chloride crystals using the antisolvent crystallisation process according to the present invention. All experiments were performed at ambient conditions. The resulting crystals were analysed by SEM (Scanning Electron Microscopy) and CSD (Crystal Size Distribution) measurements by means of laser diffraction using a Mastersizer 2000 apparatus of Malvern Instruments with a Fraunhofer model for data analysis.
The following procedure was applied for the production of 3-ketodesogestrel using the antisolvent crystallisation of the present invention. All experiments were performed at ambient conditions. The resulting crystals were analysed using CSD measurements that were measured via conventional laser diffraction technique.
A 3-ketodesogestrel solution was prepared of 97 g 3-ketodesogestrel in 5 l of ethanol. Water was used as antisolvent. For dosing, a Microdyn® type SE020TP1N membrane with an average pore size of 1 μm was used. The 3-ketodesogestrel solution was dosed from the outside of the membrane to the antisolvent on the inside of the membrane. The speed of the antisolvent was set to 45 l/hr. The speed of the 3-ketodesogestrel flow was set to 0.41 l/hr. Again, a gear pump was used to control the velocities. The crystals thus obtained were collected using filtration, washed with 100% ethanol, and subsequently dried in an oven. […] The span was determined to be 1.7. Herein d50, d10; and d90 can be understood to mean that 50%, 10%, and 90%, respectively, of the particles have a particle size smaller than or equal to the indicated value.
The following procedure was applied for the production of progesteron. All experiments were performed at ambient conditions. The resulting crystals were analysed by CSD measurements by means of laser diffraction using a Mastersizer 2000 apparatus of Malvern Instruments with a Fraunhofer model for data analysis.

Assay in data set [2]: as above
Format: physicochemical. This is another data set of the same source.

Setting [3] is: Example 1, 25 wt % NaCl solution 60 l/hr into ethanol antisolvent 50 l/hr, SPG membrane pore-size 1.1 μm.
[4] abbreviates: Example 5, 34 mg tibolone in 1 kg ethanol, 65 l/hr, antisolvent 90 wt % water/10 wt % ethanol, 151/hr, SPG membrane 1.1 μm.
The mark [5] stands for this setting: Entry 1, antisolvent 100 wt % water, 0 wt % ethanol, 45 l/h, progesteron solution 50 g per litre ethanol, 12 l/h, Microdyn membrane 1 μm.
Setting [6] is: Entry 2, antisolvent 85 wt % water, 15 wt % ethanol, 45 l/h, progesteron solution 50 g per litre ethanol, 12 l/h, Microdyn membrane 1 μm.
The mark [7] stands for this setting: Entry 3, antisolvent 70 wt % water, 30 wt % ethanol, 45 l/h, progesteron solution 50 g per litre ethanol, 12 l/h, Microdyn membrane 1 μm.
Where [8] appears, read: Entry 2, antisolvent flow 45 l/h, 3-ketodesogestrel flow 0.4 l/h, Microdyn membrane pore size 1 μm.
The mark [9] stands for this setting: Example 2, 97 g in 5 l ethanol, flow 0.41 l/hr, water antisolvent 45 l/hr, Microdyn membrane 1 μm.
Where [10] appears, read: Entry 1, antisolvent flow 45 l/h, 3-ketodesogestrel flow 0.7 l/h, Microdyn membrane pore size 1 μm.
[11] abbreviates: Entry 3, antisolvent flow 45 l/h, 3-ketodesogestrel flow 6.2 l/h, Microdyn membrane pore size 1 μm.
Setting [12] is: Entry 4, antisolvent flow 90 l/h, 3-ketodesogestrel flow 0.7 l/h, Microdyn membrane pore size 1 μm.
Setting [13] is: Entry 5, antisolvent flow 90 l/h, 3-ketodesogestrel flow 5.0 l/h, Microdyn membrane pore size 1 μm.
Where [14] appears, read: Entry 6, antisolvent flow 45 l/h, 3-ketodesogestrel flow 10 l/h, Microdyn membrane pore size 1 μm.
The mark [15] stands for this setting: Entry 7, antisolvent flow 45 l/h, 3-ketodesogestrel flow 42 l/h, Microdyn membrane pore size 1 μm.
[16] abbreviates: Entry 8, antisolvent flow 45 l/h, 3-ketodesogestrel flow 20 l/h, Microdyn membrane pore size 1 μm.

`[Cl-].[Na+]` [sodium chloride]: the “average crystal size d50” value in data set [1] (setting [3]) came to 40 μm. The Span in data set [1] (Example 1 additional experiment, stirring rod 630 rpm inside membrane, salt solution 40 l/hr, ethanol 50 l/hr) is 1.2; in data set [2] (setting [3]) it was 1.5.

As for `C#CC1(O)CCC2C3C(CCC21C)C1=C(CC(=O)CC1)C[C@H]3C` (stereo partly shown) [tibolone, (7alfa, 17alfa)-17-hydroxy-7-methyl-19-nor-pregn-5(10)-en-20-yn-3-one], in data set [1] (setting [4]), the d90 worked out at 51.3 μm. Also, in data set [2] (setting [4]), the d10 turned out to be 3.8 μm and the d50 was 18.2 μm.

Regarding `CC(=O)[C@H]1CC[C@H]2[C@@H]3CCC4=CC(=O)CC[C@]4(C)[C@H]3CC[C@]12C` [progesteron, pregn-4-ene-3,20-dione], the figures for the “d90” value in data set [1] (setting [5]), in data set [1] (setting [6]) and in data set [2] (setting [7]) were 16, 25 and 43, respectively. Also, the “d10” value in data set [1] (setting [6]) is reported as 4; in data set [2] (setting [5]), 2; in data set [2] (setting [7]), 7. The Span is listed as 1.7 in data set [1] (setting [7]), 2 in data set [2] (setting [5]) and 1.8 in data set [2] (setting [6]). For the same molecule, the “span, in words” value in data set [1] (all antisolvent compositions of Table 2) is listed as “surprisingly small span”. The entries for the “d50” value in data set [2] (setting [5]), in data set [2] (setting [6]) and in data set [2] (setting [7]) were 7, 12 and 21, respectively.

Consider `C#C[C@]1(O)CC[C@H]2[C@@H]3CCC4=CC(=O)CC[C@@H]4[C@H]3C(=C)C[C@@]21CC` [3-ketodesogestrel, (17alfa)-17-hydroxy-13-ethyl-11-methylene-18,19-dinorpregn-4-en-20-yn-3-one], for which the d50 in data set [1] (setting [8]) was found to be 10 µm; in data set [1] (setting [9]), 10 μm; in data set [2] (setting [10]), 11 µm; in data set [2] (setting [11]) it was 16 µm; in data set [2] (setting [12]), 10 µm; in data set [2] (setting [13]), 7 µm. Further, the d50 in data set [2] (setting [14]) was found to be 8 µm; in data set [2] (setting [15]), 42 µm; in data set [2] (setting [16]), 9 µm. Further, the Span in data set [1] (setting [9]) is recorded as 1.7; in data set [2] (setting [10]), 1.6; in data set [2] (setting [8]) it was 1.7; in data set [2] (setting [11]), 2.5; in data set [2] (setting [12]), 1.9; in data set [2] (setting [13]) it was 2.9. The Span in data set [2] (setting [14]) came out at 2.8; in data set [2] (setting [15]), 1.9; in data set [2] (setting [16]), 3. Further, the d10 in data set [1] (setting [9]) is 3 μm; in data set [2] (setting [10]) it was 3 µm; in data set [2] (setting [8]) it was 3 µm; in data set [2] (setting [11]), 5 µm; in data set [2] (setting [12]), 4 µm; in data set [2] (setting [13]), 2 µm. The d10 in data set [2] (setting [14]) is 2 µm; in data set [2] (setting [15]) it was 12 µm; in data set [2] (setting [16]), 2 µm. For the same molecule, the d90 was found to be 21 µm in data set [2] (setting [10]); 20 µm in data set [2] (setting [8]); 45 µm in data set [2] (setting [11]); 23 µm in data set [2] (setting [12]); 22 µm in data set [2] (setting [13]); 24 µm in data set [2] (setting [14]). For the same molecule, the d90 is 90 µm in data set [2] (setting [15]), 29 µm in data set [2] (setting [16]) and 20 μm in data set [2] (setting [9]).
